Data as given in patent US10112899B2 (ViiV HEALTHCARE UK LIMITED, priority 2014, dated 2018).
pIC50: −log10 of the molar value.

System: HIV in the HTLV-1 transformed cell line MT-4
Test: organism not typed
Format: cell-based
Conditions: MT4, 96 h, MT-4 cells; luciferase/cell titer glo readout after 96 hours; 10 point dose response

SMILES	pIC50
Cc1ccc(-c2c(C)c3c(c(C)c2[C@H](OC(C)(C)C)C(=O)O)CN(Cc2cccc(C(=O)N4CCCCC4)c2)C3)cc1 [Example 44, (2S)-2-(tert-butoxy)-2-[4,7-dimethyl-6-(4-methylphenyl)-2-{[3-(piperidine-1-carbonyl)phenyl]methyl}-2,3-dihydro-1H-isoindol-5-yl]acetic acid]	5.47
Cc1ccc(-c2c(C)c3c(c(C)c2[C@H](OC(C)(C)C)C(=O)O)CN(Cc2cccc(Cl)c2)C3)cc1 [Example 45, (2S)-2-(tert-butoxy)-2-{2-[(3-chlorophenyl)methyl]-4,7-dimethyl-6-(4-methylphenyl)-2,3-dihydro-1H-isoindol-5-yl}acetic acid]	7.37
Cc1ccc(-c2c(C)c3c(c(C)c2[C@H](OC(C)(C)C)C(=O)O)CN(Cc2cccc(N4CCOCC4)c2)C3)cc1 [Example 46, (2S)-2-(tert-butoxy)-2-[4,7-dimethyl-6-(4-methylphenyl)-2-{[3-(morpholin-4-yl)phenyl]methyl}-2,3-dihydro-1H-isoindol-5-yl]acetic acid]	5.39
Cc1ccc(-c2c(C)c3c(c(C)c2[C@H](OC(C)(C)C)C(=O)O)CN(Cc2cccc(F)c2C)C3)cc1 [Example 47, (2S)-2-(tert-butoxy)-2-{2-[(3-fluoro-2-methylphenyl)methyl]-4,7-dimethyl-6-(4-methylphenyl)-2,3-dihydro-1H-isoindol-5-yl}acetic acid]	7.36
COC(=O)N1Cc2c(C)c(-c3ccc(C)cc3)c([C@H](OC(C)(C)C)C(=O)O)c(C)c2C1 [Example 48, (2S)-2-(tert-butoxy)-2-[2-(methoxycarbonyl)-4,7-dimethyl-6-(4-methylphenyl)-2,3-dihydro-1H-isoindol-5-yl]acetic acid]	6.24
Cc1ccc(-c2c(C)c3c(c(C)c2[C@H](OC(C)(C)C)C(=O)O)CN(S(=O)(=O)c2ccc(F)cc2)C3)cc1 [Example 49, (2S)-2-(tert-butoxy)-2-[2-(4-fluorobenzenesulfonyl)-4,7-dimethyl-6-(4-methylphenyl)-2,3-dihydro-1H-isoindol-5-yl]acetic acid]	7.00
Cc1ccc(-c2c(C)c3c(c(C)c2[C@H](OC(C)(C)C)C(=O)O)CN(S(=O)(=O)N2CCCCC2)C3)cc1 [Example 50, (2S)-2-(tert-butoxy)-2-[4,7-dimethyl-6-(4-methylphenyl)-2-(piperidine-1-sulfonyl)-2,3-dihydro-1H-isoindol-5-yl]acetic acid]	7.54
Cc1ccc(-c2c(C)c3c(c(C)c2[C@H](OC(C)(C)C)C(=O)O)CN(S(=O)(=O)NC(C)C)C3)cc1 [Example 51, (2S)-2-(tert-butoxy)-2-[4,7-dimethyl-6-(4-methylphenyl)-2-[(propan-2-yl)sulfamoyl]-2,3-dihydro-1H-isoindol-5-yl]acetic acid]	7.36
Cc1ccc(-c2c(C)c3c(c(C)c2[C@H](OC(C)(C)C)C(=O)O)CN(S(=O)(=O)N2CCOCC2)C3)cc1 [Example 52, (2S)-2-(tert-butoxy)-2-[4,7-dimethyl-6-(4-methylphenyl)-2-(morpholine-4-sulfonyl)-2,3-dihydro-1H-isoindol-5-yl]acetic acid]	7.74
Cc1ccc(-c2c(C)c3c(c(C)c2[C@H](OC(C)(C)C)C(=O)O)CN(Cc2ccc(F)c(F)c2)C3)cc1 [Example 53, (2S)-2-(tert-butoxy)-2-{2-[(3,4-difluorophenyl)methyl]-4,7-dimethyl-6-(4-methylphenyl)-2,3-dihydro-1H-isoindol-5-yl}acetic acid]	7.29
Cc1ccc(-c2c(C)c3c(c(C)c2[C@H](OC(C)(C)C)C(=O)O)CN(C(=O)NC2CCC(C)CC2)C3)cc1 (stereo partly drawn) [Example 54, (2S)-2-(tert-butoxy)-2-[4,7-dimethyl-6-(4-methylphenyl)-2-{[(1r,4r)-4-methylcyclohexyl]carbamoyl}-2,3-dihydro-1H-isoindol-5-yl]acetic acid]	6.54
Cc1ccc(-c2c(C)c3c(c(C)c2[C@H](OC(C)(C)C)C(=O)O)CN(C(=O)N2CCOCC2)C3)cc1 [Example 57, (2S)-2-(tert-butoxy)-2-[4,7-dimethyl-6-(4-methylphenyl)-2-(morpholine-4-carbonyl)-2,3-dihydro-1H-isoindol-5-yl]acetic acid]	7.36
Cc1ccc(-c2c(C)c3c(c(C)c2[C@H](OC(C)(C)C)C(=O)O)CN(C(=O)NCC2CCCCC2)C3)cc1 [Example 58, (2S)-2-(tert-butoxy)-2-{2-[(cyclohexylmethyl)carbamoyl]-4,7-dimethyl-6-(4-methylphenyl)-2,3-dihydro-1H-isoindol-5-yl}acetic acid]	6.46
Cc1ccc(-c2c(C)c3c(c(C)c2[C@H](OC(C)(C)C)C(=O)O)CN(C(=O)N(C)C)C3)cc1 [Example 59, (2S)-2-(tert-butoxy)-2-[2-(dimethylcarbamoyl)-4,7-dimethyl-6-(4-methylphenyl)-2,3-dihydro-1H-isoindol-5-yl]acetic acid]	6.55
Cc1ccc(-c2c(C)c3c(c(C)c2[C@H](OC(C)(C)C)C(=O)O)CN(C(=O)N2CCCCCC2)C3)cc1 [Example 60, (2S)-2-[2-(azepane-1-carbonyl)-4,7-dimethyl-6-(4-methylphenyl)-2,3-dihydro-1H-isoindol-5-yl]-2-(tert-butoxy)acetic acid]	7.85
Cc1ccc(-c2c(C)c3c(c(C)c2[C@H](OC(C)(C)C)C(=O)O)CN(C(=O)N2CCC2)C3)cc1 [Example 61, (2S)-2-[2-(azetidine-1-carbonyl)-4,7-dimethyl-6-(4-methylphenyl)-2,3-dihydro-1H-isoindol-5-yl]-2-(tert-butoxy)acetic acid]	7.42
COCCN(C)C(=O)N1Cc2c(C)c(-c3ccc(C)cc3)c([C@H](OC(C)(C)C)C(=O)O)c(C)c2C1 [Example 62, (2S)-2-(tert-butoxy)-2-{2-[(2-methoxyethyl)(methyl)carbamoyl]-4,7-dimethyl-6-(4-methylphenyl)-2,3-dihydro-1H-isoindol-5-yl}acetic acid]	7.36
Cc1ccc(-c2c(C)c3c(c(C)c2[C@H](OC(C)(C)C)C(=O)O)CN(C(=O)NC(C)(C)C)C3)cc1 [Example 63]	7.82
Cc1ccc(-c2c(C)c3c(c(C)c2[C@H](OC(C)(C)C)C(=O)O)CN(C(=O)N2CCS(=O)(=O)CC2)C3)cc1 [Example 64, (2S)-2-(tert-butoxy)-2-[2-(1,1-dioxo-1λ^6,4-thiomorpholine-4-carbonyl)-4,7-dimethyl-6-(4-methylphenyl)-2,3-dihydro-1H-isoindol-5-yl]acetic acid]	6.97
Cc1ccc(-c2c(C)c3c(c(C)c2[C@H](OC(C)(C)C)C(=O)O)CN(C(=O)N2CCCCCCC2)C3)cc1 [Example 65, (2S)-2-[2-(azocane-1-carbonyl)-4,7-dimethyl-6-(4-methylphenyl)-2,3-dihydro-1H-isoindol-5-yl]-2-(tert-butoxy)acetic acid]	8.00
Cc1ccc(-c2c(C)c3c(c(C)c2[C@H](OC(C)(C)C)C(=O)O)CN(C(=O)N2CCCC(F)(F)C2)C3)cc1 [Example 66, (2S)-2-(tert-butoxy)-2-[2-(3,3-difluoropiperidine-1-carbonyl)-4,7-dimethyl-6-(4-methylphenyl)-2,3-dihydro-1H-isoindol-5-yl]acetic acid]	8.22
Cc1ccc(-c2c(C)c3c(c(C)c2[C@H](OC(C)(C)C)C(=O)O)CN(C(=O)N(C)C2CCCCC2)C3)cc1 [Example 67, (2S)-2-(tert-butoxy)-2-{2-[cyclohexyl(methyl)carbamoyl]-4,7-dimethyl-6-(4-methylphenyl)-2,3-dihydro-1H-isoindol-5-yl}acetic acid]	7.26
Cc1ccc(-c2c(C)c3c(c(C)c2[C@H](OC(C)(C)C)C(=O)O)CN(C(=O)N2CCC(F)(F)C2)C3)cc1 [Example 68, (2S)-2-(tert-butoxy)-2-[2-(3,3-difluoropyrrolidine-1-carbonyl)-4,7-dimethyl-6-(4-methylphenyl)-2,3-dihydro-1H-isoindol-5-yl]acetic acid]	8.10
Cc1ccc(-c2c(C)c3c(c(C)c2[C@H](OC(C)(C)C)C(=O)O)CN(C(=O)N2CCCC[C@H]2C)C3)cc1 [Example 69, (2S)-2-(tert-butoxy)-2-[4,7-dimethyl-6-(4-methylphenyl)-2-[(2R)-2-methylpiperidine-1-carbonyl]-2,3-dihydro-1H-isoindol-5-yl]acetic acid]	7.85
Cc1ccc(-c2c(C)c3c(c(C)c2[C@H](OC(C)(C)C)C(=O)O)CN(C(=O)NC2CCC2)C3)cc1 [Example 70, (2S)-2-(tert-butoxy)-2-[2-(cyclobutylcarbamoy)-4,7-dimethyl-6-(4-methylphenyl)-2,3-dihydro-1H-isoindol-5-yl]acetic acid]	7.47
Cc1ccc(-c2c(C)c3c(c(C)c2[C@H](OC(C)(C)C)C(=O)O)CN(C(=O)N2CCN(C)CC2)C3)cc1 [Example 71, (2S)-2-(tert-butoxy)-2-[4,7-dimethyl-6-(4-methylphenyl)-2-(4-methylpiperazine-1-carbonyl)-2,3-dihydro-1H-isoindol-5-yl]acetic acid]	6.56
Cc1ccc(-c2c(C)c3c(c(C)c2[C@H](OC(C)(C)C)C(=O)O)CN(C(=O)N2CCOC[C@H]2C)C3)cc1 [Example 72, (2S)-2-(tert-butoxy)-2-{4,7-dimethyl-2-[(3R)-3-methylmorpholine-4-carbonyl]-6-(4-methylphenyl)-2,3-dihydro-1H-isoindol-5-yl}acetic acid]	7.80
Cc1ccc(-c2c(C)c3c(c(C)c2[C@H](OC(C)(C)C)C(=O)O)CN(C(=O)N2C[C@H](C)O[C@@H](C)C2)C3)cc1 [Example 73, (2S)-2-(tert-butoxy)-2-{2-[(2S,6S)-2,6-dimethylmorpholine-4-carbonyl]-4,7-dimethyl-6-(4-methylphenyl)-2,3-dihydro-1H-isoindol-5-yl}acetic acid]	7.59
Cc1ccc(-c2c(C)c3c(c(C)c2[C@H](OC(C)(C)C)C(=O)O)CN(C(=O)NCC(C)(C)C)C3)cc1 [Example 74, (2S)-2-(tert-butoxy)-2-{2-[(2,2-dimethylpropyl)carbamoyl]-4,7-dimethyl-6-(4-methylphenyl)-2,3-dihydro-1H-isoindol-5-yl}acetic acid]	7.68
